According to patent US12178825B2, “Method and compositions for forming a copper-containing complex and uses thereof” (COLD SPRING HARBOR LABORATORY, priority 2017, dated 2024):
Entries after “also recorded” stand apart in the source; their conditions may differ.

Tests used:
[1] = tested on: MDA-MB-231 and SUM159; assay: Immunoblot of phospho-Erk; assay type: cell-based; conditions: DPM-1001 1-2 μM
Description: Equal quantities of lysates were isolated from indicated cell lines and then resolved by SDS-PAGE and immunoblotted with one of the following primary antibodies: mouse anti-MEK1/2, rabbit anti-p-PAK1, rabbit anti-PAK1, rabbit anti-ERK1/2, rabbit anti-phospho(Ser 217/221)-MEK1/2, rabbit anti-phospho(Thr 202/Tyr 204)-ERK1/2, rabbit anti-phospho (Ser 338)-c-RAF, rabbit anti-RAF, rabbit anti-phospho (Ser 112)-BAD and rabbit anti-BAD (Cell Signaling Technology), mouse anti-β-actin (Sigma), followed by detection with one of the following horseradish peroxidase-conjugated secondary antibodies: goat anti-rabbit IgG, goat anti-mouse IgG (Invitrogen), mouse anti-rabbit light-chain-specific IgG (Jackson ImmunoResearch Laboratories) using enhanced chemiluminescence (ECL; GE Healthcare) or SuperSignal West Femto Chemiluminescent substrate (Pierce) detection reagents.

[2] = tested on: TX mice; assay: Tissue and fecal copper levels (ICP-MS, rhodanine staining); assay type: in vivo, mouse
Method: C3He-Atp7b^tx-j were obtained from the Jackson laboratory. All animal experiments were performed according to protocols approved by the Institutional Animal Use and Care Committee of Cold Spring Harbor laboratory. Mice were injected intraperitoneally (i.p.) with vehicle, or administered DPM-1001 intraperitoneally or orally at 5 mg/kg once every third day, for over a year. At the end of the study animals were euthanized and tissue samples were removed for biochemical studies.
Tissue samples from wild-type or TX mice treated with saline, DPM-1001 or tetrathiomolybdate was washed three times with PBS containing 1 mM EDTA (to remove nonspecifically bound copper). Then, 215 μl of concentrated nitric acid (BDH Aristar Ultra) was added to each sample and incubated overnight. Samples were boiled at 95° C. for 1 h. and approximately 150 μl of each sample was further diluted in 2 ml 2% nitric acid (made freshly from concentrated nitric acid and Milli-Q water) Samples were analyzed on a Thermo Fisher iCAP Qc ICP mass spectrometer in kinetic energy discrimination (KED) mode against a calibration curve of known copper and phosphorus concentrations, with Ga (20 μg/l, Inorganic Ventures) as an internal standard, Each experiment was carried out twice and each condition was repeated in at least triplicate.
Liver tissues from wild-type and TX mice from untreated and DPM-1001-treated mice were sectioned and stained with H&E or rhodanine. Whole-slide, digitized images of H&E-stained tissue were captured using the Aperio ScanScope XT automated scanning system (Vista, CA). Image J software was used to quantitate rhodanine staining.

[3] = tested on: MDA-MB-231 cells; assay: Cell survival; assay type: cell-based
Method: (§1) The MTT assay was used to evaluate cell survival in the absence and presence of different compounds. The thiazolyl blue tetrazolium bromide (MTT) was dissolved in phosphate buffered saline (PBS) at a concentration of 5 mg/ml, filtered, and stored at 4° C. About 10,000 cells were seeded into a 96-well plate and cultured in growth medium containing serum. After 24 hours, cells were treated with the indicated concentrations of DPM-1001 or DPM-1003 (0-100 uM) for 2 hrs. Following which 20 μl MTT was added into each well. An ELISA plate reader (Biotek, Winooski, Vermont, USA) was used to measure the optical density at 490 nm.
MDA-MB-231 cells (1×10^5) were seeded in 6 cm plates in growth medium. The cells were untreated or treated with DPM-1001 (0.5, 1, 2 and 5 μM), DPM-1003 (0.5, 1, 2 and 5 μM) or TTM (25, 50, 100 μM) for 1 h. Following which, media was gently aspirated and cells were washed with PBS. To each plate 0.5 ml of crystal violet (0.5%) was added and incubated in dark for 10 minutes at room temperature. The staining solution was removed and plates were washed with PBS (three times). The cells stained with the dye were imaged.

[4] = tested on: triple-negative breast cancer (TNBC) cell lines; assay: MTT cell survival, triple-negative breast cancer cell lines; assay type: cell-based
Method: as §1

[5] = Glucose tolerance and insulin tolerance tests; assay type: in vivo, C57Bl6/J mice; conditions: HFD-fed mice, orally or intraperitoneally
Method: All protocols were approved by the Institutional Animal Use and Care Committee of Cold Spring Harbor laboratory. 10 week-old male mice fed chow diet or high-fat diet (D12492) were acclimatized for 10 days under standard conditions before experiments. Mice were injected intraperitoneally (i.p.) once daily with vehicle, 5 mg/kg of DPM-1001 intraperitoneally or orally for 50 days. Mice were euthanized after 6 h of fasting, and serum samples were collected to measure the metabolic parameters and tissue samples were collected for studying changes in signaling.
Glucose in tail blood was measured using a glucometer (One-Touch Basic; Lifescan, CA). For glucose tolerance tests (GTTs), mice were fasted for 10 hours and then injected 20% D-glucose (2 mg/g body weight) and the blood glucose was monitored immediately before and at 15, 30, 60 and 120 mins following the injection. For insulin tolerance tests (ITTs), 4-h fasted animals were given insulin (0.75 mU/g) and blood glucose was measured immediately before and at 30, 60 and 120 minutes postinjection. Statistical analysis was performed using ANOVA for both GTT and ITT.

[6] = ESI-MS analysis of complex formation with a series of other metal ions; assay type: binding; conditions: panel of metals
Method: Eight equivalents of M(NO3)2·xH2O or MSO4·xH2O were reacted with 1 eq. of DPM-1001, DPM-1003 or analog 2 (1 mM in H2O). The reaction solutions were stirred at RT, 40° C. and 80° C. for 2 h. Each sample was diluted 5-fold in 50% methanol, 0.1% formic acid and loaded into a 500 μL syringe. A Thermo Vantage triple quadrupole mass spectrometer (Thermo Scientific), equipped with an HESI spray source was coupled to an Accela HPLC system (Thermo Scientific). Mobile phase A consisted of 0.1% formic acid and mobile phase B consisted of 0.1% formic acid in methanol. Isocratic flow was set to 50% B at 200 μL/min. 200 μl samples were injected into the LC flow line via syringe pump at 10 μL/min and electrosprayed into the Vantage triple quadrupole mass spectrometer. A spray voltage of 4.3 kV was used along with a capillary temperature of 350° C. Each full MS scan was 0.5 s and data were collected with a scan range of 200 m/z to 900 m/z over 1 min.

[7] = molecular target: PTP1B-L192A/S372P (Homo sapiens, UniProt P18031, L192A/S372P); assay: Phosphatase assay with MSI-1436-resistant mutant; assay type: biochemical; conditions: read-out: IC50 against PTP1B-L192A/S372P
Sequence of PTP1B-L192A/S372P (P18031 whole entry L192A/S372P): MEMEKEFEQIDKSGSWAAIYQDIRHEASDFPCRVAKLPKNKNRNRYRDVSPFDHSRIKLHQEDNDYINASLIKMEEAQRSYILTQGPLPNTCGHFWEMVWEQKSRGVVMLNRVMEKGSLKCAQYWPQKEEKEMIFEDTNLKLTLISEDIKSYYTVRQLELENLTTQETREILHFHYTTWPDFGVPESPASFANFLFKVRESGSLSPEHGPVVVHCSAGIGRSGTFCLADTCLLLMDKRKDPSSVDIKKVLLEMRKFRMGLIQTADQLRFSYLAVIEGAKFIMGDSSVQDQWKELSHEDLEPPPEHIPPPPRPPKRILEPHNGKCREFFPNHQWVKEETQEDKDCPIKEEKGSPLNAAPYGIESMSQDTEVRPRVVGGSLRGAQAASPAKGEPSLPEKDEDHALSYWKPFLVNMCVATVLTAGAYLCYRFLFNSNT
Description: All common reagents were obtained from Thermo Fisher Scientific (Waltham, MA) or Sigma-Aldrich (St. Louis, MO). Difluoro-4-methylumbelliferyl phosphate (DiFMUP) was obtained from Invitrogen (cat #D22065). Solid black 384-well plates (cat #3573) for phosphatase assays were from Corning Incorporated (Corning, NY).

Structure (SMILES): COC(=O)CCC(C)C1CCC2C3C(O)CC4CC(NCCCCNCc5ccccn5)CCC4(C)C3CCC12C (stereo not shown) [DPM-1001]
- levels of phospho-Erk [1]: high levels of reduction; also recorded: greater than that seen with 50 μM of bathocuproine disulfonate or 25 μM of TTM
- copper levels in feces ([2]; TX mice): dramatically elevated
- rhodanine staining of liver ([2]; TX mice): no obvious staining for rhodanine
- copper levels in liver and brain ([2]; TX mice, ICP-MS): inhibits copper accumulation in liver and brain; also recorded: lowered the levels of copper in both tissues; also recorded: as effective as tetrathiomolybdate in removing copper from the liver and brain
- copper levels in feces ([2]; TX mice, listed as DMP-1001): elevated copper levels in feces
- copper levels in kidney ([2]; wild-type and TX mice, ICP-MS): does not promote accumulation of copper in the kidney; also recorded: no significant differences
- rhodanine staining of liver ([2]; wild-type mice): No signal was detected
- survival of MDA-MB-231 cells [3]: inhibiting survival; also recorded: inhibition of survival
- survival of triple-negative breast cancer cells [4]: inhibited survival; also recorded: potently inhibits survival
- glucose tolerance ([5]; D-glucose 2 mg/g): lower rise in blood glucose levels; also recorded: improved glucose tolerance
- insulin sensitivity (insulin tolerance test) ([5]; insulin 0.75 mU/g): enhanced the effect of insulin to reduce blood glucose levels; also recorded: improved
- complex formation with other metals [6]: none formed a complex with the compound
- IC50 [7]: 1 µM
